In patent US4230712A, “7-Methyl-8β-lower alkyl or 7-methyl-8-lower alkyl B/C cis or trans morphinan-6-one compounds and therapeutic method of treating pain employing them” (Miles Laboratories, Inc., priority 1978, dated 1980):
“Also recorded” adds a separate entry of the source. Where a name gives a salt, the structure may show the parent alone.

Columns and labels:
mice = experiment: acetic acid mouse writhing test (analgesic effect, s.c.); format: in vivo, male CD-1 mice; settings: for analgesic activity: in words; for ED50: sc, mouse acetic acid writhing, s.c., dose reducing the number of writhes by 50%, IA @ dose = inactive at that dose, read-out: ED50; for duration of action: footnote ** to the ED50 value; for analgesic potency relative to TR-5222: more potent than TR-5222 by a factor
Experimental: (A) Analgesic effects upon mice (acetic acid writhing test).
TEST A. ACETIC ACID MOUSE WRITHING TEST
The analgesic effects of test compounds were determined in mice by use of the acetic acid writhing test described by B. J. R. Whittle, Brit. J. Pharmacol., 22:246 (1964). In this test at least three groups of five male CD-1 mice (18-22 g) each were given subcutaneous doses of the test drug dissolved in either distilled water or distilled water acidified with HCl depending on the solubility of the compound. In all cases, 0.4 milliliter of a 0.5% V/V acetic acid in distilled water solution was administered intraperitoneally 15 minutes post drug. The number of writhes in a 20 min. interval beginning 5 minutes after the acetic acid injection were determined and compared with the number of writhes in control groups which had received only acetic acid.
Percent inhibition of writhing was calculated as: [formula]
The ED50 dose, i.e., the dose required to reduce the number of writhes by 50%, was determined graphically from a plot of % inhibition as a probit versus log dose. Confidence limits of 95% were calculated on the basis of those results falling in the range 16-84% inhibition. See Litchfield, J. T. and Wilcoxon, F., J. Pharmacol. Exp. Ther., 96, 99-113, (1949).

rats = experiment: narcotic antagonist activity, modified rat tail flick test against morphine; format: in vivo, male albino Wistar rats; parameters: AD50: unit not given here; settings: for narcotic antagonist activity / analgesic (agonist)/narcotic antagonist activity profile: in words; for AD50: rat tail flick, dose inhibiting the morphine (ED80 dose s.c.) effect by 50%, IA @ dose = inactive at that dose; for narcotic antagonist potency relative to TR-5222: more potent than TR-5222 by a factor
Experimental: (B) Narcotic antagonist activity in rats (modified rat tail flick test).
TEST B. EVALUATION OF NARCOTIC ANTAGONIST ACTIVITY
The narcotic antagonist effects of test compounds were determined by a modification of the rat tail flick procedure of Harris and Pierson (J. Pharmacol. Exp. Ther. 143:141 [1964]).
Male albino Wistar rats (100-120 g) were used for this study. A rat's tail is so placed so as to cover a photocell. Heat is applied by a lamp in a reflector with a timer being connected to the lamp and photocell so that the timer goes on when the light is turned on and is turned off when the photocell is uncovered. A rheostat, incorporated into a heating lamp is used to adjust the intensity of the light falling on the tail of the rat such that the rat's control reaction time is from two to four seconds. Animals with a control reaction time outside this range are rejected. The rheostat adjustment is made only if a significant proportion (more than 2 out of every 10 rats) of the reaction times are outside the range of two to four seconds. Groups of five rats were used each time, and two control times were determined at 60 and 30 minutes prior to subcutaneous injection of the drug.
Thirty minutes after the last control run the test drug was given intraperitoneally. This was followed ten minutes later by an ED80 dose of morphine subcutaneously. The animals were retested at 20 minutes after the morphine injection. Control animals were given vehicle and morphine only. The data were calculated as follows: [formula]
The data were plotted on log-probit paper and AD50 values, i.e., the dose required to inhibit the morphine effect by 50% within 95% confidence limits, were determined by the method of Litchfield and Wilcoxon.

[1] = conclusion from Tests A and B, Hydrochloride

| SMILES | ED50 (mice) [mg/kg] | AD50 (rats) | analgesic (agonist)/narcotic antagonist activity profile (rats; conclusion from Tests A and B) | also measured |
| --- | --- | --- | --- | --- |
| COc1ccc2c(c1)[C@]13CCN(CC4CC4)[C@H](C2)[C@@H]1[C@@H](C)CC(=O)C3 [TR-5119, 17-Cyclopropylmethyl-3-Methoxy-8β-Methylmorphinan-6-one] | 0.24 | 1.45 |  | analgesic activity (mice): good activity; narcotic antagonist activity (rats): good activity |
| C[C@H]1CC(=O)C[C@]23CCN(CC4CCC4)[C@H](Cc4ccc(O)cc42)[C@H]13.Cl [TR-5130, 17-Cyclobutylmethyl-3-hydroxy-8β-methylmorphinan-6-one Hydrochloride] | 0.11 | 1.05 | mixed agonist/antagonist activity |  |
| COc1ccc2c(c1)[C@]13CCN(CC4CCC4)[C@H](C2)[C@@H]1[C@@H](C)CC(=O)C3.Cl [TR-5132, 17-Cyclobutylmethyl-3-methoxy-8β-methylmorphinan-6-one Hydrochloride] | 0.54 | 6.4 |  | analgesic activity (mice): good activity; narcotic antagonist activity (rats): good activity |
| COc1ccc2c(c1)[C@]13CCN(CC4CCC4)[C@H](C2)[C@@H]1CCC(=O)C3.Cl [TR-5148, 17-Cyclobutylmethyl-3-methoxymorphinan-6-one Hydrochloride, reference compound] | 0.22 | IA @ 10 |  | analgesic activity (mice): potent analgesic; narcotic antagonist activity (rats): does not exhibit activity as a narcotic antagonist |
| COc1ccc2c(c1)[C@]13CCN(CC4CC4)[C@H](C2)[C@@H]1CCC(=O)C3 [TR-5152, 17-Cyclopropylmethyl-3-methoxymorphinan-6-one Hydrochloride, reference compound] | 0.24 | 5.4 |  |  |
| Cl.O=C1CC[C@H]2[C@H]3Cc4ccc(O)cc4[C@@]2(CCN3CC2CCC2)C1 [TR-5153, 17-Cyclobutylmethyl-3-hydroxymorphinan-6-one Hydrochloride, reference compound] | 0.017 | IA @ 10 |  | analgesic (agonist)/narcotic antagonist activity profile (rats; [1]): pure agonist; also recorded: pure analgesic |
| O=C1CC[C@H]2[C@H]3Cc4ccc(O)cc4[C@@]2(CCN3CC2CC2)C1 [TR-5160, 17-Cyclopropylmethyl-3-hydroxy morphinan-6-one, reference compound] | 1.02 | 2.3 |  |  |
| COc1ccc2c(c1)[C@]13CCN(CC4CC4)[C@H](C2)[C@@H]1[C@@H](C)[C@H](C)C(=O)C3 [TR-5188, 17-Cyclopropylmethyl-7α,8β-dimethyl-3-methoxy-morphinan-6-oneHydrochloride] | 1.03 | 4.7 | mixed analgesic/narcotic antagonist |  |
| C[C@@H]1[C@H]2[C@H]3Cc4ccc(O)cc4[C@@]2(CCN3CC2CCC2)CC(=O)[C@H]1C [TR-5195, 17-Cyclobutylmethyl-7α,8β-dimethyl-3-hydroxymorphinan-6-one] | 0.78 | 2.0 | analgesic and narcotic antagonist activity |  |
| C[C@@H]1[C@H]2[C@H]3Cc4ccc(O)cc4[C@@]2(CCN3CC2CC2)CC(=O)[C@H]1C [TR-5196, 17-Cyclopropylmethyl-7α,8β-dimethyl-3-hydroxy-morphinan-6-one] | 7.8 | 0.12 |  |  |
| CC[C@H]1CC(=O)C[C@]23CCN(CC4CCC4)[C@H](Cc4ccc(O)cc42)[C@H]13.Cl [TR-5200, 17-Cyclobutylmethyl-8β-ethyl-3-hydroxy-morphinan-6-one Hydrochloride] | 0.21 | 0.32 |  | analgesic activity (mice): potent activity; narcotic antagonist activity (rats): potent activity |
| CCC[C@H]1CC(=O)C[C@]23CCN(CC4CCC4)[C@H](Cc4ccc(O)cc42)[C@H]13.Cl [TR-5204, 17-Cyclobutylmethyl-3-hydroxy-8β-n-propylmorphinan-6-one Hydrochloride] | 0.43 | 3.10 | mixed analgesic/narcotic antagonist | analgesic potency relative to TR-5223 (mice; vs TR-5223): substantially more potent; narcotic antagonist potency relative to TR-5223 (rats; vs TR-5223): substantially more potent |
| COc1ccc2c(c1)[C@]13CCN(CC4CC4)[C@H](C2)[C@H]1C[C@@H](C)C(=O)C3 [TR-5205, 17-Cyclopropylmethyl-3-methoxy-7β-methyl-isomorphinan-6-one Hydrochloride] | > 15 | 1.2 |  |  |
| O=C1CC[C@@H]2[C@H]3Cc4ccc(O)cc4[C@@]2(CCN3CC2CC2)C1 [TR-5222, 17-Cyclopropylmethyl-3-hydroxy-isomorphinan-6-one Hydrochloride, reference compound] | 3.11 | 0.78 | mixed analgesic and narcotic antagonist activity | duration of action (mice): short acting |
| O=C1CC[C@@H]2[C@H]3Cc4ccc(O)cc4[C@@]2(CCN3CC2CCC2)C1 [TR-5223, 17-Cyclobutylmethyl-3-hydroxy-isomorphinan-6-one Hydrochloride, reference compound] | 0.94 | 5.0 |  | analgesic potency relative to TR-5200 (mice; vs TR-5200): significantly less potent; analgesic (agonist)/narcotic antagonist activity profile (rats; [1]): mixed agonist/antagonist activity; also recorded: mixed analgesic/narcotic antagonist activity; mixed agonist/antagonist activity relative to TR-5130 (rats; vs TR-5130, conclusion from Tests A and B): substantially less than that of TR-5130; narcotic antagonist potency relative to TR-5200 (rats; vs TR-5200): significantly less potent |
| C[C@@H]1C[C@@H]2[C@H]3Cc4ccc(O)cc4[C@@]2(CCN3CC2CC2)CC1=O [TR-5225, 17-Cyclopropylmethyl-3-hydroxy-7β-methyl-isomorphinan-6-one Hydrobromide] | 0.72 | 0.48 |  | duration of action (mice): short acting; analgesic potency relative to TR-5222 (mice): greater than four; analgesic potency relative to TR-5205 (mice; vs TR-5205): much more potent; narcotic antagonist potency relative to TR-5222 (rats): approximately 2; narcotic antagonist potency relative to TR-5205 (rats; vs TR-5205): approximately twice as potent |
| COc1ccc2c(c1)[C@]13CCN(CC4CC4)[C@H](C2)[C@H]1[C@H](C)[C@@H](C)C(=O)C3 [TR-5331, 17-Cyclopropylmethyl-7β,8α-dimethyl-3-methoxy-isomorphinan-6-one Hydrochloride] | > 10 | > 10 |  | analgesic activity (mice): essentially inactive; narcotic antagonist activity (rats): essentially inactive |
| COc1ccc2c(c1)[C@]13CCN(CC4CCC4)[C@H](C2)[C@H]1[C@H](C)[C@@H](C)C(=O)C3 [TR-5332, 17-Cyclobutylmethyl-7β,8α-dimethyl-3-methoxy-isomorphinan-6-one Hydrochloride] | > 10 | > 10 |  |  |
| CC[C@@H]1[C@H]2[C@H]3Cc4ccc(O)cc4[C@@]2(CCN3CC2CCC2)CC(=O)[C@H]1C [TR-5333, 17-Cyclobutylmethyl-8β-ethyl-3-hydroxy-7α-methyl-morphinan-6-one] | 3.3 | 1.95 | both analgesic and narcotic antagonist activity |  |
| C[C@H]1[C@@H]2[C@H]3Cc4ccc(O)cc4[C@@]2(CCN3CC2CC2)CC(=O)[C@@H]1C [TR-5343, 17-Cyclopropylmethyl-7β,8α-dimethyl-3-hydroxy-isomorphinan-6-one Hydrobromide] | 1.89 | 0.43 | mixed analgesic and narcotic antagonist activity | analgesic potency relative to TR-5222 (mice): approximately two; analgesic potency relative to TR-5196 (mice; times as potent as geometric isomer TR-5196): approximately 4 times; narcotic antagonist potency relative to TR-5222 (rats): approximately two; narcotic antagonist potency relative to TR-5196 (rats; vs geometric isomer TR-5196): somewhat less potent |
